From paper PMC2943425 (Journal of medicinal chemistry, 2010)

Legend:
neuropathic pain = settings: cited from earlier work
[1] = target: Substance P receptors (GPI) (Cavia porcellus, UniProt P30547); assay: GPI substance P antagonist assay in the presence of 1 μM naloxone; set-up: species or system guinea pig; settings: against Substance P induced contraction, n = 4
Sequence of Substance P receptors (GPI) (P30547 whole entry): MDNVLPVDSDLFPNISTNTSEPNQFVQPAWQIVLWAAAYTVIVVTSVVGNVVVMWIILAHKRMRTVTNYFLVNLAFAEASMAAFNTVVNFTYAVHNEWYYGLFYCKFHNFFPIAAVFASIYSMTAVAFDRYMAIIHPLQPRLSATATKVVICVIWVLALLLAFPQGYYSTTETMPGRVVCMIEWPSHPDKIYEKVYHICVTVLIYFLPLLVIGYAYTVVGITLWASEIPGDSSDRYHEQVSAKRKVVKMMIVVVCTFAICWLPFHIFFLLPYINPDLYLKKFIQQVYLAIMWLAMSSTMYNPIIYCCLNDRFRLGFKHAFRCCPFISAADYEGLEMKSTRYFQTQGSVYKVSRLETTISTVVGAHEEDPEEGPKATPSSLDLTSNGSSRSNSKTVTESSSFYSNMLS

Compound	effect on neuropathic pain in animal models (neuropathic pain)	opioid-induced tolerance in animal models (neuropathic pain)	SP antagonist Ke, GPI [1] [nM]
Tyr^1-D-Ala^2-Gly^3-Phe^4-Met^5-Pro^6-Leu^7-Trp^8-O-[3′,5′-(CF3)2-Bzl] [TY005]	powerful attenuation of neuropathic pain	without producing the opioid-induced tolerance	
CC(=O)N[C@@H](Cc1c[nH]c2ccccc12)C(=O)OCc1cc(C(F)(F)F)cc(C(F)(F)F)c1 [L-732,138]			250 ± 87
